Assay results from PMC8148004, “Distinction between 2′- and 3′-Phosphate Isomers of a Fluorescent NADPH Analogue Led to Strong Inhibition of Cancer Cells Migration” (Antioxidants, 2021).

Assays:
[1] = biological target: T1, NOX2 C-terminal (gp91phox) (Homo sapiens, UniProt P04839); test: fluorescence enhancement titration of the ligand with recombinant protein; also decreased NADPH consumption; assay type: binding
T1 construct: gene CYBB; C-terminal (cytosolic part), residues 300–580, His-tagged, E. coli
T1 sequence (P04839 300-570): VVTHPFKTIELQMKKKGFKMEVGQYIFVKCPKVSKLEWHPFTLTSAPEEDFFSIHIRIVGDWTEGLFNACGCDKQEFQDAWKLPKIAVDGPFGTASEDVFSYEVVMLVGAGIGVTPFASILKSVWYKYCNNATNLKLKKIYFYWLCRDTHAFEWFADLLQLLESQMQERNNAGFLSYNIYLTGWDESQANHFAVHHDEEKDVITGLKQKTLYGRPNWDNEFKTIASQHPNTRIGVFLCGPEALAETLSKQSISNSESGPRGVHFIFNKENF

eNOS = biological target: T2, eNOS (Bos taurus, UniProt P29473); test: oxyhemoglobin assay for NO formation; assay type: biochemical
T2 construct: gene NOS3; full length recombinant bovine eNOS, E. coli BL21 (DE3); with calmodulin
T2 sequence (P29473 2-1205): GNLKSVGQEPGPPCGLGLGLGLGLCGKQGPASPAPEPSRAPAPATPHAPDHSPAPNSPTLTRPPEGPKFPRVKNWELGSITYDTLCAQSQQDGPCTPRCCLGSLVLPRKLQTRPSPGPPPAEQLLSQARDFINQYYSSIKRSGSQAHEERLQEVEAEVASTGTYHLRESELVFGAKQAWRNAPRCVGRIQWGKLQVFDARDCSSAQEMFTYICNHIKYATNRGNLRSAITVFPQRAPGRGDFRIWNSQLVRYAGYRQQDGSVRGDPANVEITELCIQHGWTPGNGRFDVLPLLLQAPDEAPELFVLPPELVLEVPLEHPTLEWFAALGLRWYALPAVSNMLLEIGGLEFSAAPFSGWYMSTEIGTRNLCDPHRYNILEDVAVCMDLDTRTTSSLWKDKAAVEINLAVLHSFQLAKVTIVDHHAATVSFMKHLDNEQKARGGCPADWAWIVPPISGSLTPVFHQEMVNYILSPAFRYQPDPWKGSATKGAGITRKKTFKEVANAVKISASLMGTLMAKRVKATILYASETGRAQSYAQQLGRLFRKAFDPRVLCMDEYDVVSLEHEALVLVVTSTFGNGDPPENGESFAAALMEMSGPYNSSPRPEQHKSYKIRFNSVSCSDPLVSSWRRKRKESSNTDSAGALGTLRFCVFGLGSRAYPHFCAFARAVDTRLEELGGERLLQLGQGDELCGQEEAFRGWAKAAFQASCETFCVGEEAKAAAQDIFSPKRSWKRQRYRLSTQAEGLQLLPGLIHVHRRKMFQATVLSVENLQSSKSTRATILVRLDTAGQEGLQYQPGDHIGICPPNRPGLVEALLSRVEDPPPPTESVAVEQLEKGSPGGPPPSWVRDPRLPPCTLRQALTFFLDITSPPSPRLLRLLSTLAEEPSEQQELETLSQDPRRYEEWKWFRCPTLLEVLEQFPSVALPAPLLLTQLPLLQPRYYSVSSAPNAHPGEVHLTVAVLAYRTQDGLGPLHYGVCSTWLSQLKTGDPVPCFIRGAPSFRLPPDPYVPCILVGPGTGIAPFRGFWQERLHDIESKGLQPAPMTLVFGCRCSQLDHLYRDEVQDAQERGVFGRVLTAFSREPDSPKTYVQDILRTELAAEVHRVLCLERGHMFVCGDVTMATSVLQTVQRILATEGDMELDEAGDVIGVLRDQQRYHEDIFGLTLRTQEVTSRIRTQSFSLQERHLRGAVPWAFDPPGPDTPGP

[2] = biological target: T1, NOX2 C-terminal (gp91phox); test: fluorescence enhancement titration of the ligand with recombinant protein; assay type: binding

Q: Which results are given for `CCN(CCNC(=O)[C@H]1O[C@@H](n2cnc3c(N)ncnc32)[C@H](OP(=O)(O)O)[C@@H]1O)c1ccc(/C=C/c2ccc([N+](=O)[O-])cc2)cc1` [NS1-2]?
A: Kd [1]: 670 ± 110 nM; IC50 (eNOS): ~30000 nM

Q: How did the Kd [2] turn out when `CCN(CCNC(=O)[C@H]1O[C@@H](n2cnc3c(N)ncnc32)[C@H](O)[C@@H]1OP(=O)(O)O)c1ccc(/C=C/c2ccc([N+](=O)[O-])cc2)cc1` [NS1-3] was run?
A: The Kd was 1140 ± 90 nM.
